From patent US20180311238A1, “Selective Agonist Of a6 Containing nAChRs” (Saniona A/S, priority 2017, published 2018)

How the values were obtained:
[1] = tested on: rat striatal synaptosomes; test: 3H-dopamine release from rat striatal synaptosomes; assay type: cell-based; details: fraction of release relative to total releasable dopamine
Method: Brains from Sprague-Dawley or Wistar rats (200-400 g) were dissected. Tissue from three rat brains yields enough material for one 96-well plate. Striata were dissected on an ice-chilled platform and placed in 12 ml ice-cold dissection buffer. The tissue was hereafter homogenized for 5-10 sec using a motor driven Teflon pestle in a glass homogenizing vessel. The homogenate was centrifuged at 1000×g for 10 min at 4° C. The resulting supernatant was then re-centrifuged at 12,000×g for 20 min at 4° C. The final crude P2 synatosomal fraction was re-suspended in oxygenated (equilibrated with an atmosphere of 96% O2: 4% CO2 for at least 30 min) Krebs bicarbonate buffer (0.5 ml/100 mg wet tissue weight) containing 100 nM ^3H-dopamine (3.9 μl/100 mg wet tissue weight) and incubated at 37° C. for 10 min. Pargyline was added to the buffer to prevent degradation of ^3H-dopamine.
The ^3H-dopamine loaded synaptosomes were centrifuged at 1000×g for 5 min at room temperature. […]
Following the collection of stimulated release, 75 μl Solvable™ was added to each well and allowed to incubate for at least 45 min to extract remaining ^3H-DA from the sample. […] Radioactivity from each collection was determined by conventional liquid scintillation counting using a Packard Topcount™ counter. […]

[2] = target: T1, human α3β4 nicotinic receptors (Homo sapiens, UniProt P30926+P32297); test: FLIPR fluorescence-based calcium assay, α3β4; assay type: cell-based; details: FLIPR calcium response relative to nicotine
T1 construct: expressed in transfected cells
T1 sequence (P32297 32-505): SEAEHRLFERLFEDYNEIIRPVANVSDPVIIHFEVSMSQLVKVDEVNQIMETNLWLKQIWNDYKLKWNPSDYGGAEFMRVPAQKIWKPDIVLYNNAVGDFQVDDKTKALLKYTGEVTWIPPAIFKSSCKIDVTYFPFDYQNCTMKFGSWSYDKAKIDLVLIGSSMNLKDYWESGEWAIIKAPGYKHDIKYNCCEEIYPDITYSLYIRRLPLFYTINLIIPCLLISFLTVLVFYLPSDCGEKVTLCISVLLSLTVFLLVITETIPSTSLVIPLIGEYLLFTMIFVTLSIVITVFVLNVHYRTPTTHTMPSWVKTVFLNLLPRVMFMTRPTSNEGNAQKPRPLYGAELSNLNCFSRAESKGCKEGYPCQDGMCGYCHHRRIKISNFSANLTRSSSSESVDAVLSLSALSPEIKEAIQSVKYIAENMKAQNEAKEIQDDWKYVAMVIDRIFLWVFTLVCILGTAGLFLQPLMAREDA
T1 sequence (P30926 22-498): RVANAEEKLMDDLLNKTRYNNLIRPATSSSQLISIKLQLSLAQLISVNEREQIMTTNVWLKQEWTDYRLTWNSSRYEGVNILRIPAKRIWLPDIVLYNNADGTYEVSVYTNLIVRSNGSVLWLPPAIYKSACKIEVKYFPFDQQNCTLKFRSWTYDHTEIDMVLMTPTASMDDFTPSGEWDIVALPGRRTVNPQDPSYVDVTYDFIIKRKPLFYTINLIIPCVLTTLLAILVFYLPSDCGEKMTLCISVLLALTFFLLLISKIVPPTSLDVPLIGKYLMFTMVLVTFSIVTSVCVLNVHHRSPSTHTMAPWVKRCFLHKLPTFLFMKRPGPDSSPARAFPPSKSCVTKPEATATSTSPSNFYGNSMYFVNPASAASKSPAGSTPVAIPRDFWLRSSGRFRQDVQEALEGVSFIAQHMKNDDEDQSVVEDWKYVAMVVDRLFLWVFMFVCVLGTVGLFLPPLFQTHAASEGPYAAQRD
Method: The level of agonist activity of 9-methyl-3-pyridin-3-yl-3,9-diaza-bicyclo[3.3.1]nonane was tested in functional fluorescence-based calcium assays using TE671 cells and HEK293 cells stably expressing human α6/α3β2β3^V273S, α3β4 and α4β2 nicotinic receptors.
Cells were plated on poly-D-lysine coated 384-well microtiter plates and were allowed to proliferate for 24 h. Dye loading was performed by incubating cells with 2 μM fluo-4/AM for 1.5 h at room temperature. Dye not taken up by cells was removed by aspiration followed by three washing cycles with 25 μl of NMDG Ringer buffer (in mM: 140 NMDG, 5 KCl, 1 MgCl2, 10 CaCl2, 10 HEPES, pH 7.4) after which the cells were kept in 25 μl of the same buffer. The microtiter plates were placed in a Fluoremetric Imaging Plate Reader (FLIPR) and subjected to test compound at various concentrations. Background subtracted compound-mediated calcium responses were normalized to 100 μM nicotine control responses and pEC50 as well as relative maximal efficacy values were determined.

nicotinic receptors = test: 3H-epibatidin displacement studies in rats; assay type: in vivo
α7 = α7 (Rattus norvegicus, UniProt Q05941); test: biochemical; assay type: binding
Chain of α7 (Q05941 23-502): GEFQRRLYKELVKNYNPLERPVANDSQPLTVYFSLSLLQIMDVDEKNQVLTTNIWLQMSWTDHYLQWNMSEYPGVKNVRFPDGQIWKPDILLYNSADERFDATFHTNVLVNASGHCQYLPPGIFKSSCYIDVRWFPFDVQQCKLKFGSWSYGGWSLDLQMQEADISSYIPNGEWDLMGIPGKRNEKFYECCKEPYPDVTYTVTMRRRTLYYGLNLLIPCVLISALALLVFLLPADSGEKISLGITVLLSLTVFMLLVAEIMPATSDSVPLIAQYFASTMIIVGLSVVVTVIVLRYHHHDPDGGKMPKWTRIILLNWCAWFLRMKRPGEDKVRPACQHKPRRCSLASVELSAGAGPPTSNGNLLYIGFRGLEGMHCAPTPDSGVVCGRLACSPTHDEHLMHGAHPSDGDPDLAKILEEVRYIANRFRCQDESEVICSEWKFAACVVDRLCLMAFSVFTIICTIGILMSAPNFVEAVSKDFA

[3] = target: T2, (Homo sapiens, UniProt P30926+P32297); test: Oocyte two-electrode voltage-clamp electrophysiology, α3β4; assay type: cell-based; details: Xenopus laevis oocytes
T2 construct: expressed in transfected cells; host or cells: Xenopus laevis oocytes injected with cRNA
T2 sequence (P32297 32-505): as the sequence (P32297 32-505) above
T2 sequence (P30926 22-498): as the sequence (P30926 22-498) above
Method: Two-electrode voltage-clamp electrophysiology recordings were done in Xenopus laevis oocytes injected with approximately 25 ng cRNA. After injection, oocytes were incubated at 17° C. for 2-3 days. During measurements, an oocyte was placed in a custom designed recording chamber where compound solutions are added directly to the oocyte via a glass capillary. Compound solutions were prepared on the day of measurement and applied to oocytes with a flowrate of 2.0 ml/min. All datasets were baseline subtracted and responses to individual applications were read as peak current amplitudes. Concentration response relationships describing compound effect at a fixed acetylcholine concentration were fitted to a monophasic Hill-equation. Potency (EC50) and efficacy values (fitted maximal current relative to maximal current of acetylcholine).

CN1C2CCCC1CN(c1cccnc1)C2 [9-methyl-3-pyridin-3-yl-3,9-diaza-bicyclo[3.3.1]nonane]
3H-dopamine release [1]: concentration-dependently stimulates
efficacy [2]: practically no efficacy
dose giving half maximal displacement of specific binding of 3H-epibatidin (nicotinic receptors): 0.15 mg/kg
Ki (α7): 0.29 µM
efficacy [3]: practically no efficacy
